Reference: patent US20080153743A1, “METHODS RELATING TO THE TREATMENT OF FIBROSIS” (UNIVERSITY OF WASHINGTON, priority 2005, published 2008)

Assays:
[1] = tested on: bleomycin induced pulmonary fibrosis; assay: Bleomycin induced pulmonary fibrosis in C57/B16 mice, trichrome histology, body weight, survival; type: in vivo
Description: Murine models of bleomycin induced fibrosis have been developed in order to study fibrotic disease progression.
There is an absence of airway epithelium in lower left compared to upper left (see arrow heads) and extensive collagen deposition (lower left). On the sixth day, either saline (upper right) or ICG-001 (5 mgs/Kg/day) was administered for 10 days after which the mice were sacrificed and sectioned. Of interest is the upper right (saline treatment) showing lack of normal airway epithelialization, extensive collagen deposition and intra-airway hypercellularity (fibroblasts and inflammatory influx).

collagen1A2 = assay: RT-PCR for collagen1A2 in bleomycin treated mice; type: in vivo; conditions: 5 mgs/Kg/day s.c., versus saline/saline mice
E-Cadherin = assay: Western blot for E-Cadherin in IPF patient fibroblasts; type: cell-based, human; conditions: RPMI1640+10% FBS, 2 days, also true at the mRNA level
Description: (§1) Western blots for S100A4 (also know as FSP-1 or fibroblast specific protein-1) and E-Cadherin were performed on whole cell lysates.

S100A4 = assay: RT-PCR for S100A4 in bleomycin treated mice; type: in vivo; conditions: 5 mgs/Kg/day s.c., versus saline/saline mice
[2] = biological target: β-catenin/CBP interaction (Homo sapiens, UniProt Q92793); conditions: cited from earlier work
β-catenin/CBP interaction, sequence (Q92793 whole entry): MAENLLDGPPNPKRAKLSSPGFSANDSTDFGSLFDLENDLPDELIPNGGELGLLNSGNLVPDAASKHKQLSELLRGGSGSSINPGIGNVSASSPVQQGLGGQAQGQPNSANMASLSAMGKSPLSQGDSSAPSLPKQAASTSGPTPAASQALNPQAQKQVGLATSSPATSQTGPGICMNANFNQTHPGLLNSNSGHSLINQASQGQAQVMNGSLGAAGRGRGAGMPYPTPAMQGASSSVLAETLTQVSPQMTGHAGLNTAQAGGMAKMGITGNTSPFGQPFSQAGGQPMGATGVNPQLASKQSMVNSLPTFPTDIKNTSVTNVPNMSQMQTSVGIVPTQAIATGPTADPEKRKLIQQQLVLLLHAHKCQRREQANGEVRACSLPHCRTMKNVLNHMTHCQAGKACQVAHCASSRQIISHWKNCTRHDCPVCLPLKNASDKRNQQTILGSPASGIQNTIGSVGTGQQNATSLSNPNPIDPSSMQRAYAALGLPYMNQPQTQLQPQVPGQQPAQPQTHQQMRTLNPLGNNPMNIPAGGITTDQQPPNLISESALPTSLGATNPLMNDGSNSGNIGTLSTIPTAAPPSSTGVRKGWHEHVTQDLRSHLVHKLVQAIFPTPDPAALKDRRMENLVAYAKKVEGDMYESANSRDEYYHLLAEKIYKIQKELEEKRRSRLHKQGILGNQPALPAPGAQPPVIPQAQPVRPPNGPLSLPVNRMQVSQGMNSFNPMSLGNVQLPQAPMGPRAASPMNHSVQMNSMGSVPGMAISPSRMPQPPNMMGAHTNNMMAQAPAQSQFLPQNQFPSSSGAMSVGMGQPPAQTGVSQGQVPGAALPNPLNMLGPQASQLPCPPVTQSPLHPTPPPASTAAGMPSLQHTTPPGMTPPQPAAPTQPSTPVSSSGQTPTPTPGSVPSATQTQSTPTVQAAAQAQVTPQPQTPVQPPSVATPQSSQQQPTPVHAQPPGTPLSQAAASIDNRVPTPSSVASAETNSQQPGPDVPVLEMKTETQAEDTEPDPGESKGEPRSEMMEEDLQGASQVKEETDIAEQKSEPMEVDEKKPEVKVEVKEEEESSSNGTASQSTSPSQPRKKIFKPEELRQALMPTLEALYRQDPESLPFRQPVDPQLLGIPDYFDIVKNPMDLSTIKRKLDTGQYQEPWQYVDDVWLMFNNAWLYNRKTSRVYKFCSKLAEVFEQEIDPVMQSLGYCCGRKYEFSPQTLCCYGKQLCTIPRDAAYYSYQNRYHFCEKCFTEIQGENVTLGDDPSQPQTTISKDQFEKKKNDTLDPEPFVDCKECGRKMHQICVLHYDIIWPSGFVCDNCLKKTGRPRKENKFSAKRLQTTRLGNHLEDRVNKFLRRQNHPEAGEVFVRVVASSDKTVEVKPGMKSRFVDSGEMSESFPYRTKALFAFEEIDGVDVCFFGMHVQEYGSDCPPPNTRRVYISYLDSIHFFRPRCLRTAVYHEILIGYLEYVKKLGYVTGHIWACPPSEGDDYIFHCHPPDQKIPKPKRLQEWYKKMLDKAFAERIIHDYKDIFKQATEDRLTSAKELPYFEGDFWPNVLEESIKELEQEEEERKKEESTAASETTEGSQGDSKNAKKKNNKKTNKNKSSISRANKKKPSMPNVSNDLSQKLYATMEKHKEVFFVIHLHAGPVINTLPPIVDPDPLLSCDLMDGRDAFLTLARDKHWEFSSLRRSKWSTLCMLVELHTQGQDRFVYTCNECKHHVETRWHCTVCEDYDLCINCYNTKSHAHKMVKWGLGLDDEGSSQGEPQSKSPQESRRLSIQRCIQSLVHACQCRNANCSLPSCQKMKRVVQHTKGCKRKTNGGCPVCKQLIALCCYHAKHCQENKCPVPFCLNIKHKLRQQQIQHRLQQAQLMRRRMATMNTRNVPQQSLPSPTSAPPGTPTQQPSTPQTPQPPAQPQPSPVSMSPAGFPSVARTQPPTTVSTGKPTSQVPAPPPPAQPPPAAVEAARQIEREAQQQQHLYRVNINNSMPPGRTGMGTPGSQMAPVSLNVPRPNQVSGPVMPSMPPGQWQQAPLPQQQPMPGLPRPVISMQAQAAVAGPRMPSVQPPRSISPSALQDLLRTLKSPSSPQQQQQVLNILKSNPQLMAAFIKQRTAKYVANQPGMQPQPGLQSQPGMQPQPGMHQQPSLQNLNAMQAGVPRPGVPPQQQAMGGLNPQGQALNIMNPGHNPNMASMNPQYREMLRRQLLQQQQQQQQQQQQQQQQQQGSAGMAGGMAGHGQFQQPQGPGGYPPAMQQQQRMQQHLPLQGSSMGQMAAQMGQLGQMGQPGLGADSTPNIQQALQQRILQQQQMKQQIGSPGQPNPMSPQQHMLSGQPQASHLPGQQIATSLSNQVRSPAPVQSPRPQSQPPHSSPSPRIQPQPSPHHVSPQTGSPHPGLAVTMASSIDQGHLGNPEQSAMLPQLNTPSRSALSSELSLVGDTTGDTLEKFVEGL

[3] = tested on: TCF/β-catenin transcription; assay: Bat-Gal transgenic mice, bleomycin model, X-Gal/β-galactosidase read out of TCF/β-catenin transcription; type: in vivo; conditions: 5 mg/Kg/day s.c., intratracheal bleomycin
Description: Furthermore, utilizing a specific inhibitor of Wnt/β-catenin/CBP driven transcription (ICG-001, 5 mg/Kg/day s.c.) Wnt/β-catenin was inhibited by >95% as judged by β-galactogidase activity. ICG-001 is among the structures described in detail below.
Using this murine model of pulmonary fibrosis in transgenic Bat-al mice, ICG-001 (5 mg/Kg/day) blocked >95% of bleomycin-induced TCF/βcatenin transcription.
These mice have a Beta-Galactosidase transgene driven by a TCF/Catenin driven promoter (i.e. a read out for activated Wnt/catenin signaling). The mice were given intratracheal saline or bleomycin and either treated with ICG-001 (5 mgs/Kg/day subcutaneously) or saline as vehicle control. The mice were sacrificed and the lungs sectioned and stained with X-Gal (blue color) A) intratracheal bleo+saline. B) intracheal bleo+ICG-001 C) saline+saline.
The dose was selected because ICG-001 reduces TCF/βCatenin driven O-Galactosidase expression >95% at 5 mgs/Kg/day.

[4] = biological target: β-catenin/p300 interaction (Homo sapiens, UniProt Q09472); conditions: cited from earlier work
β-catenin/p300 interaction, sequence (Q09472 whole entry): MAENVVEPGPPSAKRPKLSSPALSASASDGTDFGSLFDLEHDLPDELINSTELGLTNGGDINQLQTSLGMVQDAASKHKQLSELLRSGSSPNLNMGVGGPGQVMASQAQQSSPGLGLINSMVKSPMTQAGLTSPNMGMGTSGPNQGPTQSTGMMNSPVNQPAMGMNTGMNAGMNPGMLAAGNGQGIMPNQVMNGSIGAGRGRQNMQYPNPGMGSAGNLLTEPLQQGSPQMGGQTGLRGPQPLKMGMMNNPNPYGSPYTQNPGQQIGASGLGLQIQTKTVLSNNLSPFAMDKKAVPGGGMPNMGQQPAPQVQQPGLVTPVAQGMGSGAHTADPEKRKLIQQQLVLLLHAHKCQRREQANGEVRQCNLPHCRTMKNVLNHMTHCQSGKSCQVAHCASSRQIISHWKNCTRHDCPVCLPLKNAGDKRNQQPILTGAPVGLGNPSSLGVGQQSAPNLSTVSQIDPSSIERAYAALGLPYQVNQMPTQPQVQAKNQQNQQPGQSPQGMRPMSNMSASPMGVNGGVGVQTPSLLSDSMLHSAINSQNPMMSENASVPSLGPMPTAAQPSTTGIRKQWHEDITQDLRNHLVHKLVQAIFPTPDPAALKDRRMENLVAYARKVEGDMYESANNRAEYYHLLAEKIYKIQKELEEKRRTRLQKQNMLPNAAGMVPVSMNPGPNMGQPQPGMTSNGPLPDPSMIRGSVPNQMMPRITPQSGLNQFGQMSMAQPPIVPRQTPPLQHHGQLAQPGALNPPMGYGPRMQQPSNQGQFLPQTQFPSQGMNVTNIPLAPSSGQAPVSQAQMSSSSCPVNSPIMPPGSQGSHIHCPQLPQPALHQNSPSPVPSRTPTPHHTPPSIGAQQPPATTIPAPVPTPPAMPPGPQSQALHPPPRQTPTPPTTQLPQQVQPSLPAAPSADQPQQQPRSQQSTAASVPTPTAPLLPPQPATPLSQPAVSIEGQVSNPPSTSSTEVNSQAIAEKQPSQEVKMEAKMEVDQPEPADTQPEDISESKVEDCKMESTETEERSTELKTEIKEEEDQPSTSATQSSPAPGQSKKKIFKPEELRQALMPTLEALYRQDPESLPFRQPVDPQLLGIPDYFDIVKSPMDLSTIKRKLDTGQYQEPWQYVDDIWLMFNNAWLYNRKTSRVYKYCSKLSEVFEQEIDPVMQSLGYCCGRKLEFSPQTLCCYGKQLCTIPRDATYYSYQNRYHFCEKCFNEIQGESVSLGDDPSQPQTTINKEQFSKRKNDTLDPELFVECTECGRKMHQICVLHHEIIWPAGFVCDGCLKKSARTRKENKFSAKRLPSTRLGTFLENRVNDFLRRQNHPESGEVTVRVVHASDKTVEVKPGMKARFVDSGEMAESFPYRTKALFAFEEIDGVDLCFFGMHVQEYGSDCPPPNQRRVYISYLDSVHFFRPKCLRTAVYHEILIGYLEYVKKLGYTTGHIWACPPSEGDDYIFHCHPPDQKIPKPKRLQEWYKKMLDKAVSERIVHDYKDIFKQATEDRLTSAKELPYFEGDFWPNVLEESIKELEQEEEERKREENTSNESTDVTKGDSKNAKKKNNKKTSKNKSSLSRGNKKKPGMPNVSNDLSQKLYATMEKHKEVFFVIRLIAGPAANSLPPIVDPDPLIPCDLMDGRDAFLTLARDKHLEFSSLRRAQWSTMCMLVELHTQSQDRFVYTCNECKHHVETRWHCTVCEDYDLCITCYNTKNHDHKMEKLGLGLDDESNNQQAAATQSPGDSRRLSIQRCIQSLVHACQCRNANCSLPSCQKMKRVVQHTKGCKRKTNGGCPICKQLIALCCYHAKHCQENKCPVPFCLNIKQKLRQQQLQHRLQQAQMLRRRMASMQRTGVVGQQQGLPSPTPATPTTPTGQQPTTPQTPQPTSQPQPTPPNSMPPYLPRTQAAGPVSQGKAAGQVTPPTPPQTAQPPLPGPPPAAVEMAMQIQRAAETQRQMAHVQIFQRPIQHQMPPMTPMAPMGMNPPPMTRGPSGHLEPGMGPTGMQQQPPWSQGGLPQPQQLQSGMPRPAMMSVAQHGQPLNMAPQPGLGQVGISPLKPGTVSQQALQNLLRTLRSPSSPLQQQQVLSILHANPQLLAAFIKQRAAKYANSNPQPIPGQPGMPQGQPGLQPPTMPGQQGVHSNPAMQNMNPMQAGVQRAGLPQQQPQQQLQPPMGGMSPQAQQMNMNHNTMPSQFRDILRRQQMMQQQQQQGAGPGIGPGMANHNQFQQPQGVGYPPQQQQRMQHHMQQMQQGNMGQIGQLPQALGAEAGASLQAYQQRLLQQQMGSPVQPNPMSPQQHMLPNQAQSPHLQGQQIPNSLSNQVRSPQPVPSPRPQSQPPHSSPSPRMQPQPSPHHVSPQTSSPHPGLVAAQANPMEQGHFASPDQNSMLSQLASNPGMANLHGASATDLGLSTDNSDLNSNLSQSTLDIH

S100A4 (FSP-1) = assay: Western blot for S100A4 in IPF patient fibroblasts; type: cell-based, human; conditions: RPMI1640+10% FBS, 2 days, also true at the mRNA level
Description: as §1

[5] = 5 mgs/Kg/day for 10 days from the sixth day after intratracheal bleomycin

O=C1[C@H](Cc2ccc(O)cc2)N2C(=O)CCN(C(=O)NCc3ccccc3)[C@H]2CN1Cc1cccc2ccccc12 [ICG-001]
disease progression, as judged by reduced mortality, histopathology and endogenous gene expression ([1]; 5 mg/Kg/day, murine bleomycin model): not only halts but reverses disease progression | airway histology (lung sections) [1, 5]: the airway looks essentially normal | body weight [1, 5]: regained normal body weight | collagen levels (trichrome stain) [1, 5]: normal collagen levels | survival ([1]; 5 mgs/Kg/day for 10 days from the sixth day after intratracheal bleomycin, untreated controls did not survive): survived | collagen1A2 message (RT-PCR) (collagen1A2): reduced essentially to negative control | E-cadherin expression (Western blot, whole cell lysates) (E-Cadherin): increased E-cadherin expression | S100A4 message (RT-PCR) (S100A4): reduced essentially to negative control | effect on β-catenin/CBP interaction [2]: selectively blocks the β-catenin/CBP interaction | inhibition of bleomycin-induced TCF/β-catenin transcription (β-galactosidase activity) [3]: > 95% | effect on β-catenin/p300 interaction [4]: without interfering | S100A4 expression (Western blot, whole cell lysates) (S100A4 (FSP-1)): decreased S100A4 expression
